Target: Genome polyprotein (Hepatitis C virus genotype 3a (isolate NZL1) (HCV), UniProt Q81258)
Experiment: Inhibition Assay: HCV polymerase inhibition assay: HCV polymerase reactions were carried out using a modified mothod of Howe et al., Antimicrobial Agents and Chemotherapy 2004 48(12): 4813-4821.

Genome polyprotein, sequence (Q81258 2431-3021 limits assumed): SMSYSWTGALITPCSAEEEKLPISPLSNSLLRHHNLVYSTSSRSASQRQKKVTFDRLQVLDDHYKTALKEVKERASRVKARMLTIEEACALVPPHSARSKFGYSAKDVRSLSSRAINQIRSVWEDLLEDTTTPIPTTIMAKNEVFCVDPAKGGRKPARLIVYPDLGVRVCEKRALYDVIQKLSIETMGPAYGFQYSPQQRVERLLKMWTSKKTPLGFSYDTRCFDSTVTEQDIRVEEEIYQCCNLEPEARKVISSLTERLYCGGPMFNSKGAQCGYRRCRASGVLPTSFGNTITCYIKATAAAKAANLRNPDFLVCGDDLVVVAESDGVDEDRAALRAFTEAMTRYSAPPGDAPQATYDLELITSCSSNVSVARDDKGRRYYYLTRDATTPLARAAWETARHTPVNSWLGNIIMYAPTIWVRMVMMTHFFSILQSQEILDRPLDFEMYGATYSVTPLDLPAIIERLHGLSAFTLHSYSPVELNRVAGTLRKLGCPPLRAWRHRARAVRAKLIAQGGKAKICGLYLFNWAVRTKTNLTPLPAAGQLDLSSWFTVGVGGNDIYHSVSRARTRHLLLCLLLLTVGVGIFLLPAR

CNC(=O)c1c2cc(C3CC3)c(N(CCCNC(=O)c3ncoc3C)S(C)(=O)=O)cc2nn1-c1ccc(Br)cc1
IC50: 0.03 µM
